Calls of active or inactive are those of the source. No cut-off for these calls is given here.
Key:
HCT-116 [1] = test: Effect on cleaved caspase 3 expression level in p53 knockout human HCT-116 cells at 1 to 2 uM incubated for 24 hrs by Western blot analysis; type: functional, cell-based; settings: dose 1-2 µM
HCT-116 [2] = test: Induction of morphological changes in human HCT-116 cells assessed as decrease in adherence to culture dish at 0.5 to 2 uM by microscopic analysis; type: functional, cell-based; settings: dose 0.5-2 µM
HCT-116 [3] = test: Induction of apoptosis in human HCT-116 assessed as late apoptotic cells at 2 uM pretreated with Z-VAD-FMK for 30 mins followed by compound addition and measured after 24 hrs by Annexin V-FITC/PI double staining based flow cytometry (reference value: 7.43%); type: functional
[4] = Toxicity in female BALB/c mouse implanted with mouse CT26 cells assessed as change in heart morphology at 1 to 2 mg/kg administrated once every 3 days for 18 days by H&E staining based analysis; type: organism-based; settings: in vivo, 432 h, dose 1-2 mg/kg, time 18 day
HCT-116 [5] = test: Induction of apoptosis in human HCT-116 assessed as necrotic cells at 1 uM incubated for 24 hrs Annexin V FITC/PI double staining based flow cytometry (reference value: 0.94 %); type: functional
CT26 [6] = test: Antitumor activity against mouse CT26 cells implanted in female BALB/c mouse assessed as reduction in tumor weight at 1 mg/kg administrated once every 3 days for 18 days relative to control; type: functional; parameters: scale not given: the % may be the effect or the level left; settings: time 18 day
HCT-116 [7] = test: Antiproliferative activity against p53 knockout human HCT-116 cells assessed as inhibition of cell viability incubated for 24 hrs by CCK8 assay; type: functional, cell-based; settings: HCT-116, 24 h
CT26 [8] = test: Antitumor activity against mouse CT26 cells implanted in female BALB/c mouse assessed as reduction in tumor volume at 2 mg/kg administrated once every 3 days for 18 days; type: functional, organism-based; settings: time 18.0 day
HCT-116 [9] = test: Induction of apoptosis in human HCT-116 assessed as late apoptotic cells at 1 uM incubated for 24 hrs Annexin V FITC/PI double staining based flow cytometry (reference value: 8.02 %); type: functional
HCT-116 [10] = test: Induction of autophagy in human HCT-116 cells transfected with tandem mRFP-GFP-LC3 plasmid assessed as reduction in p62 expression by Western blot analysis; type: functional, cell-based; settings: time 3-48 hrs
HCT-116 [11] = test: Effect on apoptosis pathway related genes expression in human HCT-116 cells at 1 uM incubated for 24 hrs by GSVA enrichment analysis; type: functional, cell-based
HCT-116 [12] = test: Inhibition of colony formation in ATG5 knockout human HCT-116 cells assessed as reduction in number of colonies at 1 to 4 uM measured after 24 hrs by crystal violet staining based analysis; type: functional, cell-based; settings: dose 1-4 µM
[13] = Toxicity in female BALB/c mouse implanted with mouse CT26 cells assessed as change in kidney morphology at 1 to 2 mg/kg administrated once every 3 days for 18 days by H&E staining based analysis; type: organism-based; settings: in vivo, 432 h, dose 1-2 mg/kg, time 18 day
HCT-116 [14] = test: Inhibition of colony formation in ATG7 knockout human HCT-116 cells assessed as reduction in number of colonies at 1 to 4 uM measured after 24 hrs by crystal violet staining based analysis; type: functional, cell-based; settings: dose 1-4 µM
HCT-116 [15] = test: Inhibition of colony formation in wildtype human HCT-116 cells assessed as reduction in number of colonies at 1 to 4 uM measured after 24 hrs by crystal violet staining based analysis; type: functional, cell-based; settings: dose 1-4 µM
HCT-116 [16] = test: Induction of morphological changes in human HCT-116 cells assessed as appearance of rounder cells at 0.5 to 2 uM by microscopic analysis; type: functional, cell-based; settings: dose 0.5-2 µM
CT26 [17] = test: Antitumor activity against mouse CT26 cells implanted in female BALB/c mouse assessed as reduction in tumor volume at 1 to 2 mg/kg administrated once every 3 days for 18 days; type: functional, organism-based; settings: dose 1-2 mg/kg, time 18.0 day
786-0 = test: Antiproliferative activity against human 786-0 cells assessed as inhibition of cell growth incubated for 48 hrs by MTT assay; type: functional, cell-based; settings: 786-0, 48 h
HT-29 = test: Antiproliferative activity against human HT-29 cells assessed as inhibition of cell growth incubated for 48 hrs by MTT assay; type: functional, cell-based; settings: HT-29, 48 h
SK-OV-3 = test: Antiproliferative activity against human SK-OV-3 cells assessed as inhibition of cell growth incubated for 48 hrs by MTT assay; type: functional, cell-based; settings: SK-OV-3, 48 h
HCT-116 [18] = test: Induction of autophagy in ATG5 knockout human HCT-116 cells assessed as increase in LC3-II expression at 1 to 2 uM incubated for 24 hrs by Western blot analysis; type: functional, cell-based; settings: dose 1-2 µM
MCF7 = test: Antiproliferative activity against human MCF7 cells assessed as inhibition of cell growth incubated for 48 hrs by MTT assay; type: functional, cell-based; settings: MCF7, 48 h
HCT-116 [19] = test: Induction of apoptosis in human HCT-116 assessed as early apoptotic cells at 1 uM pretreated with Z-VAD-FMK for 30 mins followed by compound addition and measured after 24 hrs by Annexin V-FITC/PI double staining based flow cytometry (reference value: 0.95%); type: functional
[20] = Toxicity in female BALB/c mouse implanted with mouse CT26 cells assessed as change in liver morphology at 1 to 2 mg/kg administrated once every 3 days for 18 days by H&E staining based analysis; type: organism-based; settings: in vivo, 432 h, dose 1-2 mg/kg, time 18 day
HCT-116 [21] = test: Induction of autophagy in human HCT-116 cells transfected with tandem mRFP-GFP-LC3 plasmid assessed as increase in LC3-II accumulation by Western blot analysis; type: functional, cell-based; settings: time 3-48 hrs
HCT-116 [22] = test: Induction of apoptosis in human HCT-116 assessed as viable cells at 2 uM incubated for 24 hrs Annexin V FITC/PI double staining based flow cytometry (Rvb =90.0%); type: functional; settings: read-out: Activity
HCT-116 [23] = test: Upregulation of autophagy pathway related genes expression in human HCT-116 cells at 1 uM incubated for 24 hrs by GSVA enrichment analysis; type: functional, cell-based
HCT-116 [24] = test: Induction of apoptosis in human HCT-116 assessed as viable cells at 2 uM pretreated with Z-VAD-FMK for 30 mins followed by compound addition and measured after 24 hrs by Annexin V-FITC/PI double staining based flow cytometry (reference value: 90.8%); type: functional; settings: read-out: Activity
A-375 = test: Antiproliferative activity against human A-375 cells assessed as inhibition of cell growth incubated for 48 hrs by MTT assay; type: functional, cell-based; settings: A-375, 48 h
HCT-116 [25] = test: Induction of autophagy in human HCT-116 cells transfected with mRFP-GFP-LC3B assessed as autophagolysosome formation by measuring decrease in GFP fluorescence at 0.5 to 2 uM incubated for 24 hrs by DAPI staining based fluorescence confocal microscopic analysis; type: functional, cell-based; settings: dose 0.5-2 µM
HCT-116 [26] = test: Induction of apoptosis in human HCT-116 assessed as necrotic cells at 1 uM pretreated with Z-VAD-FMK for 30 mins followed by compound addition and measured after 24 hrs by Annexin V-FITC/PI double staining based flow cytometry (reference value: 0.84 %); type: functional
CT26 [27] = test: Antitumor activity against mouse CT26 cells implanted in female BALB/c mouse assessed as reduction in Ki67 expression at 1 to 2 mg/kg administrated once every 3 days for 18 days by immunohistochemistry analysis; type: functional, organism-based; settings: dose 1-2 mg/kg, time 18.0 day
HCT-116 [28] = test: Induction of apoptosis in human HCT-116 assessed as late apoptotic cells at 2 uM incubated for 24 hrs Annexin V FITC/PI double staining based flow cytometry (reference value: 8.02 %); type: functional

With CCN(CC)CCCNCc1cc2c3ccccc3n(CCCc3ccccc3)c2c(CNCCCN(CC)CC)n1 the Activity (HCT-116 [1]) was “inactive”, the Activity (HCT-116 [2]) was “Active” and the Activity (HCT-116 [3]) was 13.7%. The Activity [4] was “Non-toxic”, the Activity (HCT-116 [5]) was 2.02% and the Activity (CT26 [6]) was 56.5%. The IC50 (HCT-116 [7]) was 2.45 µM, the Activity (CT26 [8]) was “Active; Stronger Than 4Mg/Kg Of Cisplatin Treatment Group” and the Activity (HCT-116 [9]) was 11.2%. The Activity (HCT-116 [10]) was “Time-dependent-effect”, the Activity (HCT-116 [11]) was “inactive” and the inhibition (HCT-116 [12]) was “Active; Insignificant Decrease In Number Of Colonies Observed”. The Activity [13] was “Non-toxic”, the inhibition (HCT-116 [14]) was “Active; Insignificant Decrease In Number Of Colonies Observed” and the inhibition (HCT-116 [15]) was “Active”. The Activity (HCT-116 [16]) was “Active”, the Activity (CT26 [17]) was “Active” and the IC50 (786-0) was 3.86 µM. The IC50 (HT-29) was 2.65 µM, the IC50 (SK-OV-3) was 4.26 µM and the Activity (HCT-116 [18]) was “inactive”. The IC50 (MCF7) was 4.46 µM, the Activity (HCT-116 [19]) was 1.75% and the Activity [20] was “Non-toxic”. For the same compound, the Activity (HCT-116 [21]) was “Time-dependent-effect”, the viability at 2 µM (HCT-116 [22]) was 80.5% and the Activity (HCT-116 [23]) was “Active”. For the same compound, the viability at 2 µM (HCT-116 [24]) was 82.3%, the IC50 (A-375) was 4.45 µM and the Activity (HCT-116 [25]) was “Active”. The Activity (HCT-116 [26]) was 2.2%, the Activity (CT26 [27]) was “Active” and the Activity (HCT-116 [28]) was 13.9%.

Source: ChEMBL document CHEMBL6096670, “Design, synthesis and biological evaluation of novel β-carbolines as antitumor agents via targeting autophagy in colorectal cancer” (Eur J Med Chem, 2025)
